One assay has as its target T1, ERα (Homo sapiens, UniProt P03372).
T1 construct: purchased Panvera P2698
T1 sequence (P03372 1-595): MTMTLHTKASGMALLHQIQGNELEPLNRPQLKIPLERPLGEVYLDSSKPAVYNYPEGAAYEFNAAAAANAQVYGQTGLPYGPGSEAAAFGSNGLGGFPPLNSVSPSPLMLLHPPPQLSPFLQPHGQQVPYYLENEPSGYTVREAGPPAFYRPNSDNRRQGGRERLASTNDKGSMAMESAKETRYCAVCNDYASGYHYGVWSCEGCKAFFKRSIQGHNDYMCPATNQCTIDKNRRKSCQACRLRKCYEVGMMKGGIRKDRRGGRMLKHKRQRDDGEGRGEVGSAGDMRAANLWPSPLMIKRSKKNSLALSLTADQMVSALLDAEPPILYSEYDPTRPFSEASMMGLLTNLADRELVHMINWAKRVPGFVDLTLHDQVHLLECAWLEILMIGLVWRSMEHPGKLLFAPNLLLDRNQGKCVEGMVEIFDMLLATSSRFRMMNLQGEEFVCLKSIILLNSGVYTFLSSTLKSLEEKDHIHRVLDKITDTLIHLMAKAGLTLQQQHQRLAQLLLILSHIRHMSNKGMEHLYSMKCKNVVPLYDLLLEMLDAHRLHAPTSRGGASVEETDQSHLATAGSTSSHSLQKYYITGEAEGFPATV
In words: Fluorescence Polarization Competition Assay, ERα binding affinity. The note with it: Fluormone ligand, read-out: Affinity for ER α. The method, then:
(§1) A number of compounds were tested for ERα and ERβ binding affinity using Panvera's Fluorescence Polarization Competition Assay Kits (cat. nos. P2698 and P2700). Briefly, ERα or ERβ were thawed on ice from −80° C. An estrogen receptor and fluorescent ligand (Fluormone TM) complex was formed at a 15/1 molar ratio for ERα and at a 10/1 molar ratio for ERβ (2X complex). Serial dilutions of the test compounds were made in assay buffer and the assay was initiated by adding 50 ul of the 2X receptor-ligand complex to 50 ul of compound solution in black 96-well plates. Zero percent competition (theoretical maximum polarization) was measured in wells containing 50 ul of buffer and 50 ul of the 2X receptor-ligand complex. The plates were incubated after gentle shaking in the dark at room temperature. Polarization values (mP) were read no longer than 7 hours after the reaction was started with a FARCyte Fluorescent reader (Amersham) at excitation and emission wavelengths of 485 nm and 535 nm, respectively. Data was analyzed using non-linear regression and IC50 values determined using GraphPad Prism. Estradiol was used as the reference compound.

A further assay deals with mature oligodendrocytes. As to the kind of experiment: Oligodendrocyte Toxicity Assay (LDH), mature oligodendrocytes. It counts as cell-based. The note with it: Rattus norvegicus; protection against SIN-1-induced toxicity; 1 hour pretreatment, LDH after 24 hours. The method, then: (§2) Primary rat oligodendrocyte progenitor cells were obtained from the cerebra of 2-3 day old postnatal rats (Sprague Dawley). The meninges were removed and tissue was mechanically dissociated. Cells were plated on T75 flasks and fed with DMEM +10% FBS.
(§3) Enriched OLPs were collected by mechanical separation from the astrocytic monolayer and were expanded in serum free media (SFM) supplemented with the mitogens, PDGF-AA (10 ng/mI) and FGF-2 (10 ng/mI).
To generate mature oligodendrocytes, progenitor cells were switched to SFM supplemented with IGF-1 (10ng/ml) 24 hours after plating and cells were grown under these conditions for 7 days prior to experimental assays.
Cells were plated in 96-well plates, 10,000 per well. Medium was changed to fresh medium and cells were pretreated with compounds for 1 hour. […]
(§4) After 24 hours, medium was removed and assayed for LDH activity using the Promega cytotox 96 kit (catalog# G1780). Results were calculated as percent protection against toxin-induced toxicity.
(§5) These compounds have been assessed for their efficacy in protection against cell death produced by toxic agents such as SIN-1 (3-morpholino-sydnonimine, producing peroxynitrite) and camptothecin. The target cells assessed in vitro are primary cultures of rodent oligodendrocyte progenitors and their mature counterparts.

Assay [1] concerns primary rat oligodendrocyte progenitor cells. In words: Oligodendrocyte Toxicity Assay (LDH), progenitor cells. It counts as cell-based. As to conditions: Oligodendrocyte progenitor cell, 1 hour pretreatment, LDH after 24 hours. The method, then: as §2, §3
Cells were plated in 96-well plates, 10,000 per well. Medium was changed to fresh medium and cells were pretreated with compounds for 1 hour. Toxins were added to give the following final concentrations: Sin-110 mM, Camptothecin 1 μM
as §4, §5

The target of a further assay is T2, ERβ (Homo sapiens, UniProt Q92731).
T2 construct: purchased Panvera P2700
In words: Fluorescence Polarization Competition Assay, ERβ binding affinity. As to conditions: Fluormone ligand, read-out: Affinity for ER β. The method, then: as §1
(In general: In fluorescence polarisation assays a small probe gives low polarisation when free and higher when bound to something large.)

Like-named read-outs stand apart in the source and are kept apart here.

T2 sequence (Q92731 whole entry): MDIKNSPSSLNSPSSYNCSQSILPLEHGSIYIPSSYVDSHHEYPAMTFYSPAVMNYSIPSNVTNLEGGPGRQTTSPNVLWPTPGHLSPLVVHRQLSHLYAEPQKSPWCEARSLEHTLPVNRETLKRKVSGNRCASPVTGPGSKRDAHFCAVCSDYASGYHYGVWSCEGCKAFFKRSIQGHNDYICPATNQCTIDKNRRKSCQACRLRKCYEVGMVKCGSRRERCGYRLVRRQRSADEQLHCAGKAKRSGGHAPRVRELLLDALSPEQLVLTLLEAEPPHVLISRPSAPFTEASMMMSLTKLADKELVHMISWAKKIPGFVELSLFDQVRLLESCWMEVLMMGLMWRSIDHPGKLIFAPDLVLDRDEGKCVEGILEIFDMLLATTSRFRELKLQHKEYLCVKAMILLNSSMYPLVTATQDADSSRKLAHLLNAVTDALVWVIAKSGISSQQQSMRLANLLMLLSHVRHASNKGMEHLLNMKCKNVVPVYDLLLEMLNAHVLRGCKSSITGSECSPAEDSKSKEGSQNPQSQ

On to `Oc1ccc(-c2ccc3cc(O)ccc3c2Cl)cc1` [5-chloro-6-(4-hydroxyphenyl)-2-naphthalenol], for which the IC50 at ERα was 35.4 nM; in the assay on mature oligodendrocytes, above 30000 nM; in assay [1] (protection against SIN-1-induced toxicity, read-out: Progenitor Oligodendrocytes SIN-1 IC50), 2170 nM; in assay [1] (protection against camptothecin (1 μM)-induced toxicity, read-out: Progenitor Oligodendrocytes Camptothecin IC50) it was below 3000 nM; on ERβ, 3 nM.

These data come from patent US20070249732A1, “USE OF CERTAIN PHENYL NAPTHYL COMPOUNDS FOR PROTECTION OF NEURONS AND OLIGODENDROCYTES IN THE TREATMENT OF MULTIPLE SCLEROSIS (MS)” (AVENTIS PHARMACEUTICALS INC., priority 2005, published 2007).
